These results are taken from US11578077B2, “Spiro-oxazolones” (Hoffmann-La Roche Inc., priority 2013, dated 2023).

SMILES strings stand for the structures.

The experiment concerns the target human V1a receptor (Homo sapiens (Human), UniProt P37288). The experiment is described as follows: human V1a receptor binding studies (3H-Vasopressin, SPA beads). The settings on record: membranes of HEK293 cells transiently transfected with human V1a receptor, Ki by Cheng-Prusoff. How it is done: The human V1a receptor was cloned by RT-PCR from total human liver RNA. The coding sequence was subcloned in an expression vector after sequencing to confirm the identity of the amplified sequence. […] Cell membranes were prepared from HEK293 cells transiently transfected with the expression vector and grown in 20 liter fermenters with the following protocol.
50 g of cells are re-suspended in 30 ml freshly prepared ice cold Lysis buffer ([…] HEPES. 1 mM EDTA, 10 mM MgCl2 adjusted to pH=7.4+complete cocktail of protease inhibitor (Roche Diagnostics)). Homogenized with Polytron for 1 min and sonicated on ice for 2×2 minutes at 80% intensity (Vibracell sonicator). The preparation is centrifuged 20 min at 500 g at 4° C., the pellet is discarded and the supernatant centrifuged 1 hour at 43'000 g at 4° C. (19'000 rpm). The pellet is re-suspended in 12.5 ml Lysis buffer+12.5 ml Sucrose 20% and homogenized using a Polytron for 1-2 min. The protein concentration is determined by the Bradford method and aliquots are stored at −80° C. until use. For binding studies 60 mg Yttrium silicate SPA beads (Amersham) are mixed with an aliquot of membrane in binding buffer (50 mM Tris, 120 mM NaCl, 5 mM KCl, 2 mM CaCl2, 10 mM MgCl) for 15 minutes with mixing. 50 μl of bead/membrane mixture is then added to each well of a 96 well plate, followed by […] of 4 nM 3H-Vasopressin (American Radiolabeled Chemicals). For total binding measurement 100 μl of binding buffer are added to the respective wells, for non-specific binding 100 μl of […] cold vasopressin and for compound testing 100 μl of a serial dilution of each compound in 2% DMSO. The plate is incubated 1 h at room temperature, centrifuged 1 min at 1000 g and counted on a Packard Top-Count. Non-specific binding counts are subtracted from each well and data is normalized to the maximum specific binding set at 100%. To calculate an IC 50 the curve is fitted using a non-linear regression model (XLfit) and the Ki is calculated using the Cheng-Prussoff equation.

human V1a receptor, sequence (P37288 whole entry): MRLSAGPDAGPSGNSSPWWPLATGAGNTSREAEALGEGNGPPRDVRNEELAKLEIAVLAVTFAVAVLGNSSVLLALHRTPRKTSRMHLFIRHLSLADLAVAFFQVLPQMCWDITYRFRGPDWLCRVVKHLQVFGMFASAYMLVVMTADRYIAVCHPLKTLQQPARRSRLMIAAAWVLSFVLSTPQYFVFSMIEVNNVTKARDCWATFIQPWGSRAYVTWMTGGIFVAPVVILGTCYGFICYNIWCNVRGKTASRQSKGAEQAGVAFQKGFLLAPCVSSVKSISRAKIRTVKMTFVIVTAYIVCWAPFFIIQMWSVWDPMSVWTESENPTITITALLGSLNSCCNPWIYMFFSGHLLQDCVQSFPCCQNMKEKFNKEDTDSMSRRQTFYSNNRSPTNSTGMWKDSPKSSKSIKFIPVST

With `O=C1OC2(CCN(C3=NC(=O)C4(Cc5ccccc5C4)O3)CC2)c2cccc(F)c21` [Example 14, 4-fluoro-1′-(4′-oxo-1,3-dihydro-4′H-spiro[indene-2,5′-[1,3]oxazol]-2′-yl)-3H-spiro[2-benzofuran-1,4′-piperidin]-3-one], the “pKi hV1a” value came to 8.5.

For `O=C1OC2(CCN(C3=NC(=O)C4(Cc5cc(O)c(O)cc5C4)O3)CC2)c2ccccc21` [Example 33, 1′-(5,6-dihydroxy-4′-oxo-1,3-dihydro-4′H-spiro[indene-2,5′-[1,3]oxazol]-2′-yl)-3H-spiro[2-benzofuran-1,4′-piperidin]-3-one], the “pKi hV1a” value was 6.7.

For `O=C1OC2(CCN(C3=NC(=O)C4(Cc5ccccc5C4)O3)CC2)c2cc(O)c(O)cc21` [Example 13, 5,6-dihydroxy-1′-(4′-oxo-1,3-dihydro-4′H-spiro[indene-2,5′-[1,3]oxazol]-2′-yl)-3H-spiro[2-benzofuran-1,4′-piperidin]-3-one], the “pKi hV1a” value was 8.2.

On to `O=C1OC2(CCN(C3=NC(=O)C4(Cc5ccccc5C4)O3)CC2)c2c1ccnc2Cl` [Example 55, 4-chloro-1′-(4-oxo-1,3-dihydro-4′H-spiro[indene-2,5′-[1,3]oxazol]-2′-yl)-1H-spiro[furo[3,4-c]pyridine-3,4′-piperidin]-1-one], for which the “pKi hV1a” value worked out at 6.5.

With `O=C1N=C(N2CCC3(CC2)OCc2cccnc23)OC12Cc1ccccc1C2` [Example 36, 2′-(1′H,5H-spiro[furo[3,4-b]pyridine-7,4′-piperidin]-1′-yl)-1,3-dihydro-4′H-spiro[indene-2,5′-[1,3]oxazol]-4′-one], the “pKi hV1a” value stood at 8.6.

Consider `Cc1ccc2c(c1)CC1(C2)OC(N2CCC3(CC2)OCc2ccccc23)=NC1=O` (centres unmarked) [Example 21, 5-methyl-2′-(1′H,3H-spiro[2-benzofuran-1,4′-piperidin]-1′-yl)-1,3-dihydro-4′H-spiro[indene-2,5′-[1,3]oxazol]-4′-one], for which the “pKi hV1a” value was determined as 9.1.

Take `O=C1OC2(CCN(C3=NC(=O)C4(Cc5cc(F)c(F)cc5C4)O3)CC2)c2ccccc21` [Example 35, 1′-(5,6-difluoro-4′-oxo-1,3-dihydro-4′H-spiro[indene-2,5′-[1,3]oxazol]-2′-yl)-3H-spiro[2-benzofuran-1,4′-piperidin]-3-one]: the “pKi hV1a” value amounted to 8.9.

`COc1cccc2c1CC1(C2)OC(N2CCC3(CC2)OC(C)(C)c2ncccc23)=NC1=O` (centres unmarked) [Example 68, 2′-(7,7-dimethyl-1′H,7H-spiro[furo[3,4-b]pyridine-5,4′-piperidin]-1′-yl)-4-methoxy-1,3-dihydro-4′H-spiro[indene-2,5′-[1,3]oxazol]-4′-one]: the “pKi hV1a” value worked out at 8.1.

For the compound `Cc1ccc2c(n1)C(=O)OC21CCN(C2=NC(=O)C3(Cc4ccccc4C3)O2)CC1` [Example 49, 2-methyl-1′-(4′-oxo-1,3-dihydro-4′H-spiro[indene-2,5′-[1,3]oxazol]-2′-yl)-7H-spiro[furo[3,4-b]pyridine-5,4′-piperidin]-7-one], the “pKi hV1a” value was found to be 7.0.

For `O=C1OC2(CCN(C3=NC(=O)C4(Cc5ccc(O)cc5C4)O3)CC2)c2ccccc21` (centres unmarked) [Example 28, 1′-(5-hydroxy-4′-oxo-1,3-dihydro-4′H-spiro[indene-2,5′-[1,3]oxazol]-2′-yl)-3H-spiro[2-benzofuran-1,4′-piperidin]-3-one], the “pKi hV1a” value is 8.4.

Consider `O=C1N=C(N2CCC3(CC2)OCc2ccccc23)OC12Cc1cc(F)c(F)cc1C2` [Example 34, 5,6-difluoro-2′-(1′H,3H-spiro[2-benzofuran-1,4′-piperidin]-1′-yl)-1,3-dihydro-4′H-spiro[indene-2,5′-[1,3]oxazol]-4′-one], for which the “pKi hV1a” value turned out to be 9.4.

With `COc1ccc2c(c1)CC1(C2)OC(N2CCC3(CC2)OC(=O)c2ccccc23)=NC1=O` (centres unmarked) [Example 27, 1′-(5-methoxy-4′-oxo-1,3-dihydro-4′H-spiro[indene-2,5′-[1,3]oxazol]-2′-yl)-3H-spiro[2-benzofuran-1,4′-piperidin]-3-one], the “pKi hV1a” value was 7.7.

As for `Cc1ccc2c(c1)C(=O)OC21CCN(C2=NC(=O)C3(Cc4ccccc4C3)O2)CC1` [Example 6, 5-methyl-1′-(4′-oxo-1,3-dihydro-4′H-spiro[indene-2,5′-[1,3]oxazol]-2′-yl)-3H-spiro[2-benzofuran-1,4′-piperidin]-3-one], the “pKi hV1a” value stood at 8.8.

With `CC1(C)OC2(CCN(C3=NC(=O)C4(Cc5ccc(O)cc5C4)O3)CC2)c2cccnc21` (centres unmarked) [Example 41, 2′-(7,7-dimethyl-1′H,7H-spiro[furo[3,4-b]pyridine-5,4′-piperidin]-1′-yl)-5-hydroxy-1,3-dihydro-4′H-spiro[indene-2,5′-[1,3]oxazol]-4′-one], the “pKi hV1a” value is 8.9.

Turning to `Cc1ccc2c(c1)CC1(C2)OC(N2CCC3(CC2)OC(=O)c2ccccc23)=NC1=O` (centres unmarked) [Example 22, 1′-(5-methyl-4′-oxo-1,3-dihydro-4′H-spiro[indene-2,5′-[1,3]oxazol]-2′-yl)-3H-spiro[2-benzofuran-1,4′-piperidin]-3-one], the “pKi hV1a” value is 8.9.

On to `Cc1ccc2c(c1)C[C@]1(C2)OC(N2CCC3(CC2)OC(=O)c2ccccc23)=NC1=O` (stereo in doubt) [Example 24, (−)-1′-[5-methyl-4′-oxo-1,3-dihydro-4′H-spiro[indene-2,5′,-[1,3]oxazol]-2′-yl]-3H-spiro[2-benzofuran-1,4′-piperidin]-3-one], for which the “pKi hV1a” value was found to be 8.6.

On to `COc1cc2c(cc1OC)CC1(C2)OC(N2CCC3(CC2)OC(=O)c2ccccc23)=NC1=O` [Example 32, 1′-(5,6-dimethoxy-4′-oxo-1,3-dihydro-4′H-spiro[indene-2,5′-[1,3]oxazol)-2′-yl)-3H-spiro[2-benzofuran-1,4′-piperidin]-3-one], for which the “pKi hV1a” value was determined as 6.4.

Consider `O=C1OC2(CCN(C3=NC(=O)C4(Cc5ccccc5C4)O3)CC2)c2cnc(Cl)cc21` [Example 54, 6-chloro-1′-(4′-oxo-1,3-dihydro-4′H-spiro[indene-2,5′-[1,3]oxazol]-2′-yl)-1H-spiro[furo[3,4-c]pyridine-3,4′-piperidin]-1-one], for which the “pKi hV1a” value is reported as 7.4.

`CC1(C)OC2(CCN(C3=NC(=O)C4(Cc5ccccc5C4)O3)CC2)c2ccc(O)nc21` [Example 72, 2′-(2-hydroxy-7,7-dimethyl-1′H,7H-spiro[furo[3,4-b]pyridine-5,4′-piperidin]-1′-yl)-1,3-dihydro-4′H-spiro[indene-2,5′-[1,3]oxazol]-4′-one]: the “pKi hV1a” value is reported as 8.5.

Consider `O=C1OC2(CCN(C3=NC(=O)C4(Cc5ccccc5C4)O3)CC2)c2ccc(Br)cc21` [Example 18, 5-bromo-1′-(4′-oxo-1,3-dihydro-4′H-spiro[indene-2,5′-[1,3]oxazol]-2′-yl)-3H-spiro[2-benzofuran-1,4′-piperidin]-3-one], for which the “pKi hV1a” value is given as 8.4.

In the case of `O=C1N=C(N2CCC3(CC2)OCc2ccccc23)OC12Cc1ccc(F)cc1C2` (centres unmarked) [Example 30, 5-fluoro-2′-(1′H,3H-spiro[2-benzofuran-1,4′-piperidin]-1′-yl)-1,3-dihydro-4′H-spiro[indene-2,5′-[1,3]oxazol]-4′-one], the “pKi hV1a” value stood at 9.0.

`O=C1OC2(CCN(C3=NC(=O)C4(Cc5ccccc5C4)O3)CC2)c2cc(Cl)ccc21` [Example 17, 6-chloro-1′-(4-oxo-1,3-dihydro-4′H-spiro[indene-2,5′-[1,3]oxazol]-2′-yl)-3H-spiro[2-benzofuran-1,4′-piperidin]-3-one]: the “pKi hV1a” value amounted to 8.6.

As for `Cc1ccc2c(n1)C1(CCN(C3=NC(=O)C4(Cc5ccccc5C4)O3)CC1)OC2` [Example 42, 2′-(2-methyl-1′H,5H-spiro[furo[3,4-b]pyridine-7,4′-piperidin]-1′-yl)-1,3-dihydro-4′H-spiro[indene-2,5′-[1,3]oxazol]-4′-one], the “pKi hV1a” value was 9.1.

For `O=C1OC2(CCN(C3=NC(=O)C4(Cc5ccccc5C4)O3)CC2)c2c(F)cccc21` [Example 16, 7-fluoro-1′-(4′-oxo-1,3-dihydro-4′H-spiro[indene-2,5′-[1,3]oxazol]-2′-yl)-3H-spiro[2-benzofuran-1,4′-piperidin]-3-one], the “pKi hV1a” value was determined as 8.7.

As for `O=C1N=C(N2CCC3(CC2)OCc2ccccc23)O[C@@]12CCc1ccccc12` [Example 20, (+)-2′-(1′H,3H-spiro[2-benzofuran-1,4′-piperidin]-1′-yl)-2,3-dihydro-4′H-spiro[indene-1,5′-[1,3]oxazol]-4′-one], the “pKi hV1a” value was determined as 6.6.

As for `O=C1OC2(CCN(C3=NC(=O)[C@@]4(CCc5ccccc5C4)O3)CC2)c2ccccc21` (single isomer, unassigned; enantiomer b) [Example 67, 1′-[4′-oxo-3,4-dihydro-1H,4′H-spiro[naphthalene-2,5′-[1,3]oxazol]-2′-yl]-1′H,3H-spiro[2-benzofuran-1,4′-piperidin]-3-one enantiomer B], where the note is “read-out: pKi hV1a (converted)”, the Ki is 3.98 nM.
